{"source": "patent US5846936A", "about": "“Growth hormone releasing factor analogs” (Roche Vitamins Inc., priority 1995, dated 1998)", "key": {"[1]": {"test_system": "rat pituitary cells", "type": "cell-based", "method": "The biological activity of the novel peptides were compared with that of a synthetic standard of the natural sequence of GRF(1-44)-NH2 (SEQ ID NO: 1-NH2) which was isolated from a human pancreatic tumor of an individual suffering from acromegaly (Salk Institute standard hp-GRF-NH2 (NL-A-10)). The assay for biological activity, which is based on the ability to stimulate production of growth hormone in rat pituitary cells in tissue culture, was performed in the following manner. Pituitaries from 30-40 male Sprague-Dawley rats (175 g) were removed aseptically after decapitation. The anterior lobes were collected, washed 3 times in sterile Hepes buffer (0.025M)(pH 7.35) and dispersed at 37° C. in 20-30 ml Hepes buffer (pH 7.35) containing collagenase (4 mg per ml) and Dispase (Protease grande II, 2 mg per ml). After gentle 80 min. vortexing and trituration by Pasteur pipette, the dispersed cells were separated by centrifugation (150×g, 4 min.) and re-suspended in Hepes buffer containing neuraminidase (4 mg/ml), and […] ethylenediaminetetraacetic acid (EDTA) disodium salt pH 7.35, for 10 min. The cells were washed twice with plating medium and plated on multiwell-plates (1.5×10^5 cells per ml) using the following defined medium: F-12/DMEM/BGJ(6:3:1) (Gibco: 430-1700/430-1600/320-2591) with 2 g BSA/L., 2.38 g Hepes/L.,50 mg Gentamycin/L (Schering Co.). The medium in each well was supplemented either with the novel peptide or natural GRF(1-44)-NH2 (SEQ ID NO: 1-NH2) at concentrations ranging from 3.1 to 200 fmol. per ml. of medium. Control wells contained no supplement. Plating was done with this medium added with 2% fetal calf serum to ensure rapid fixation of the cells. On the fourth day the cells were washed twice with the defined medium without fetal calf serum. Finally […] of defined medium was added to each well plus […] of the same medium containing each individual treatment, in triplicate. After 3 hours of incubation the medium was collected and diluted as required to conduct radioimmunoassay (RIA) for rat growth hormone. RIAs were conducted using Sinha's anti-murine GH immune serum and procedures according to the National Pituitary Agency using protein A to precipitate antibody antigen complex."}, "[2]": {"test_system": "crossbred swine", "experiment": "In vivo GRF analog administration in swine, serum GH by RIA (GH AUC)", "conditions": "relative to GRF(1-29)-NH2", "method": "In vivo GRF analog studies were performed in crossbred swine (approximately70 lbs; Hoffmann-La Roche Experimental Research Facility) housed in individual metabolism cages with food and water freely available. For each GRF analog examined, six pigs were arranged in a 6×6 latin square design, such that each pig received a different dose (0 [saline], 0.3, 1.0, 3.0, 6.0 or 10.0 μg/kg body weight) over a six day period. […] All swine were cannulated via the femoral artery under halothane/ketamine HCL/xylezine anesthesia for subsequent (2-3 days) blood sampling. GRF analog was administered by subcutaneous injection in porcine gelatin. Pretreatment (control) blood samples were taken every 30 min from 8:30-9:30 a.m. Treatment doses were administered beginning at 10:00 a.m. One hr post-dosing, animals were sampled at 10 min intervals; 2nd hr post-dosing, animals were sampled at 15 min intervals; 3rd hr post-dosing,animals were sampled at 30 min intervals. […]\nGH levels in porcine sera were measured by homologous double-antibody RIA, employing porcine GH standard (lot# AFP-10859C) supplied by Dr. A. Parlow (Research and Education Institute, Torrance, Calif.) and baboon anti-pGH sera (B-58: Hoffmann-La Roche). […] GH area under the curve (GH AUC) for the treatment period (0-360 min) was determined by trapezoidal summation. […]"}, "[3]": {"conditions": "literature; cited from earlier work"}, "[4]": {"conditions": "products of Asn^8 deamidation of [Leu^27]-GRF(1-32)-NH2 at pH 7.4, literature; cited from earlier work"}}, "note": "*1 amine or outer side, *2 acyl side, *3 side chain or, on linkers, in order; H or OH if unused. Where a SMILES comes first, the peptide text is derived from it. Where no end group is shown, it is not given here. [ ]: non-standard residue; d: D form. The star is where a group is joined. Desaminotyrosyl = O=C(CCc1ccc(O)cc1)*; βAsp = O=C(O)[C@H](CC(=O)[*:2])N[*:1]"}
{"molecule": "CC[C@H](C)[C@H](NC(=O)[C@H](C)NC(=O)[C@H](CC(=O)O)NC(=O)[C@@H](C)NC(=O)CCc1ccc(O)cc1)C(=O)N[C@@H](Cc1ccccc1)C(=O)N[C@H](C(=O)N[C@@H](CC(N)=O)C(=O)N[C@@H](CO)C(=O)N[C@@H](Cc1ccc(O)cc1)C(=O)N[C@@H](CCCNC(=N)N)C(=O)N[C@@H](CCCCN)C(=O)N[C@H](C(=O)N[C@@H](CC(C)C)C(=O)N[C@@H](C)C(=O)N[C@@H](CCC(N)=O)C(=O)N[C@@H](CC(C)C)C(=O)N[C@@H](CO)C(=O)N[C@@H](C)C(=O)N[C@@H](CCCNC(=N)N)C(=O)N[C@@H](CCCCN)C(=O)N[C@@H](CC(C)C)C(=O)N[C@@H](CC(C)C)C(=O)N[C@@H](CCC(N)=O)C(=O)N[C@@H](CC(=O)O)C(=O)N[C@H](C(=O)N[C@@H](CCSC)C(=O)N[C@@H](CO)C(=O)N[C@@H](CCCNC(=N)N)C(N)=O)[C@@H](C)CC)C(C)C)[C@@H](C)O", "note": "[SEQ ID NO: 34-NH2, reference compound] (Desaminotyrosyl-[dA]DAIFTNSYRKVLAQLSARKLLQDIMSR-NH2)", "values": [{"measurement": "Potency of GRF Analogs Relative to GRF(1-44)-NH2 (SEQ ID NO: 1-NH2)", "setting": "[1]", "value": 4.71}, {"measurement": "Times more potent than GRF(1-29)-NH2 (SEQ ID NO: 3-NH2)", "setting": "[2]", "value": "10-15 times"}]}
{"molecule": "GRF(1-29)-NH2", "values": [{"measurement": "Intrinsic activity and potency in vitro", "setting": "[3]", "value": "full intrinsic activity and potency"}]}
{"molecule": "[isoAsp^8, Leu^27 ]-GRF(1-32)-NH2 (YADAIFT[βAsp]SYRKVLGQLSARKLLQDILSRQQG-NH2; N-terminus assumed; SMILES CC[C@H](C)[C@H](NC(=O)[C@H](C)NC(=O)[C@H](CC(=O)O)NC(=O)[C@H](C)NC(=O)[C@@H](N)Cc1ccc(O)cc1)C(=O)N[C@@H](Cc1ccccc1)C(=O)N[C@H](C(=O)N[C@@H](CC(=O)N[C@@H](CO)C(=O)N[C@@H](Cc1ccc(O)cc1)C(=O)N[C@@H](CCCNC(=N)N)C(=O)N[C@@H](CCCCN)C(=O)N[C@H](C(=O)N[C@@H](CC(C)C)C(=O)NCC(=O)N[C@@H](CCC(N)=O)C(=O)N[C@@H](CC(C)C)C(=O)N[C@@H](CO)C(=O)N[C@@H](C)C(=O)N[C@@H](CCCNC(=N)N)C(=O)N[C@@H](CCCCN)C(=O)N[C@@H](CC(C)C)C(=O)N[C@@H](CC(C)C)C(=O)N[C@@H](CCC(N)=O)C(=O)N[C@@H](CC(=O)O)C(=O)N[C@H](C(=O)N[C@@H](CC(C)C)C(=O)N[C@@H](CO)C(=O)N[C@@H](CCCNC(=N)N)C(=O)N[C@@H](CCC(N)=O)C(=O)N[C@@H](CCC(N)=O)C(=O)NCC(N)=O)[C@@H](C)CC)C(C)C)C(=O)O)[C@@H](C)O) [deamidation product of [Leu^27]-GRF(1-32)-NH2]", "values": [{"measurement": "Biological activities", "setting": "[4]", "value": "substantially reduced biological activities"}]}
